Patent US6949250B2, “Selective algaecides for control of cyanochloronta” (The United States of America as represented by the …, priority 2002, dated 2005)

Assays:
chlorophyll a = experiment: DNA1-19-1 first pond efficacy study (limnocorrals): chlorophyll a; format: in vivo; details: 2 μM, within 24 hours
O. perornata = experiment: DNA1-19-1 second and third pond efficacy studies: O. perornata filaments; format: in vivo, Oscillatoria perornata; details: second and third efficacy study; 1, 0.3, and 0.1 μM
Experimental: (§1) The method described by Schrader et al. (2000) was used to determine the potential for using the anthraquinone derivatives as selective algicides in catfish aquaculture ponds. All catfish ponds used in efficacy tests were maintained using commercial pond management practices and were located at the Thad Cochran Pond Facility, Mississippi State University, Stoneville, Miss. Anthraquinone analogs were dissolved in deionized water before application to water within the limnocorrals.
(§2) Limnocorrals in which test compound was applied to the enclosed water were randomly selected, and control (no test compound applied) limnocorrals were included in each efficacy study. For each sampling, two water samples (250 mL) were obtained from within each limnocorral (approximately 6-8 cm below the water surface and from opposite sides of each limnocorral) and mixed together in a 500 mL sample bottle to provide a representative sample of the water contained within the limnocorral.
In the second study with DNA1-19-1, twelve limnocorrals that were the same size as those used in the first study were placed in another 4-ha earthen catfish pond. […] The sampling regime and procedures used in the first study were followed in a similar manner, except that water samples were obtained before DNA1-19-1 application, 16 hours after application, and at days 2, 4, and 7. […]

[1] = Detection of DNA1-19-1 in pond water samples; format: physicochemical; details: samples collected at and after 24 hours after application to water within limnocorrals
Description: The attempts to develop a reproducible analytical method to determine the levels of DNA1-19-1 in the pond water were unsuccessful. DNA1-19-1 is believed to bind quickly to suspended soil particles due to the positively charged nature of the 2-methylamino chain; evident by the lack of detection of DNA1-19-1 in the water. Since the levels of suspended soil particles in each water sample varied and an accurate measurement of the soil particles present in each sample could not be obtained, the consistent recoveries of DNA1-19-1 from the particulate portions of water samples could not be achieved.

Oscillatoria perornata = experiment: DNA2-59-1 second pond efficacy study: O. perornata abundance; format: in vivo; details: 0.3 μM, within three days of application
Experimental: as §1, §2
(§3) In the second efficacy test with DNA2-59-1, six limnocorrals (1.53 m in diameter and 1.53 m high) were placed in a 0.1-ha earthen pond containing a heavy bloom of O. perornata. The same delay in mixing the water within the limnocorrals used in the first efficacy study was utilized. Water within three randomly selected limnocorrals received an application rate of 0.3 μM DNA2-59-1, and the other three limnocorrals were controls. […]

Oscillatoria geminata = experiment: DNA2-59-1 third pond efficacy study: Oscillatoria geminata abundance; format: in vivo; details: 0.3 μM, from two days through four days after application
Experimental: as §1, §2
(§4) For the third efficacy test with DNA2-59-1, twelve limnocorrals (2.44 m in diameter and 1.53 m high) were placed in a 4-ha earthen pond containing a bloom of O. perornata. […]

[2] = DNA2-59-1 second efficacy study: dissipation rate and half-life in pond water (HPLC); format: physicochemical; details: for DNA2-59-1 Levels in Pond Water: second study, 0.3 μM applied
Experimental: In the second efficacy test with DNA2-59-1, six limnocorrals (1.53 m in diameter and 1.53 m high) were placed in a 0.1-ha earthen pond containing a heavy bloom of O. perornata. The same delay in mixing the water within the limnocorrals used in the first efficacy study was utilized. Water within three randomly selected limnocorrals received an application rate of 0.3 μM DNA2-59-1, and the other three limnocorrals were controls. Water samples were collected before application of DNA2-59-1, 20 minutes after application, and at days 1, 2, 3, and 7. The same tests and methods used in the first efficacy testing of DNA2-59-1 were used.
Approximately 15 mL each of water samples from DNA2-59-1 efficacy testing that were designated for HPLC analysis were placed in scintillation vials and held in a freezer. Water samples were later melted at room temperature, and 5 mL of each sample was then filtered through a nylon membrane filter (13 mm diameter and 0.45 μm; Whatman International, Maidstone, England) using a 5 mL syringe (Hamilton Company, Reno, Nev.) and a 13 mm syringe filter holder (Fisher Scientific Company, Pittsburgh, Pa.). Filtrate (1 mL) was placed in 2 mL vials and capped using teflon/rubber septum caps (National Scientific Company, Jeddah, Saudia Arabia). The filter paper was removed and placed in a scintillation vial to which 2 mL of HPLC grade methanol (Fisher Scientific, Fair Lawn, N.J.) was added and then sonicated for 5 minutes. The methanol solution was then filtered using a nylon membrane acrodisc (25 mm and 0.45 μm; Pall Life Sciences, Ann Arbor, Mich.), and the methanol filtrate was placed in separate 2 mL vials.
Filtrate samples were analyzed using a Waters 2690 Alliance HPLC containing a 996 PDA detector and a XTerra RP 18 column (150 mm×4.6 mm, 5 μm particle size; Waters Corporation, Milford, Mass.). The mobile phase consisted of 25 mM sodium dihydrogenphosphate in 0.1% phosphoric acid (A) and acetonitrile (B). The gradient was from 80A/20B in 15 minutes to 40A/60B. After each run, a 5 minute wash with methanol was performed, followed by equilibrating the column for 10 minutes with 80A/20B. The temperature was set at 40° C., the flow rate was 1 mL/minute, the detection wavelength 256 nm, and the sample injection volume was 10 μL. All solvents used were HPLC grade (Fisher Scientific, Fair Lawn, N.J.).
Means and standard deviations of data were determined and graphed. The graphs were used to help determine the half-life of DNA2-59-1 in the pond water. Because of the short duration of the first efficacy study, the half-life of DNA2-59-1 in the pond water could not be determined.

Microcystis spp. = experiment: DNA2-59-1 third pond efficacy study: Microcystis spp. abundance; format: in vivo; details: 0.3 μM
Experimental: as §1, §2, §4

green algae = experiment: DNA2-59-1 second pond efficacy study: green algae abundance; format: in vivo; details: 0.3 μM
Experimental: as §1, §2, §3

Compound | Chlorophyll a levels (result in words) (chlorophyll a) | numbers of O. perornata filaments compared to controls (result in words) (O. perornata) | detection in soluble fractions of water samples (result in words) [1] | Numbers of O. perornata (result in words) (Oscillatoria perornata) | abundance of Oscillatoria geminate vs controls (result in words) (Oscillatoria geminata) | half-life at 0.3 μM ([2]; pond water in limnocorrals (earthen catfish pond), second efficacy study) [h] | DNA2-59-1 Levels in Pond Water ([2]; 0 hours) [µg/L] | DNA2-59-1 Levels in Pond Water ([2]; 24 hours) [µg/L] | DNA2-59-1 Levels in Pond Water ([2]; 48 hours) [µg/L] | DNA2-59-1 Levels in Pond Water ([2]; 72 hours) [µg/L] | DNA2-59-1 Levels in Pond Water ([2]; 168 hours) [µg/L] | Microcystis spp. compared to control limnocorrals (result in words) (Microcystis spp.) | Green algae (result in words) (green algae)
CCN(CC)CCCC(C)NCc1ccc2c(c1)C(=O)c1ccccc1C2=O.O=P(O)(O)O.O=P(O)(O)O (stereo not shown) [DNA1-19-1, 2-[methylamino-N-(1′-methyl-4′-N,N-diethylaminobutyl)]-9,10-anthraquinone diphosphate] | decreased significantly | lack of reduction | could not be detected | – | – | – | – | – | – | – | – | – | –
CC(C)NCc1ccc2c(c1)C(=O)c1ccccc1C2=O [DNA2-59-1, 2-[methylamino-N-(1′-methylethyl)]-9,10-anthraquinone monophosphate] | – | – | – | significantly and dramatically reduced | significantly lower than controls | 19 | 94.8 ± 11.5 | 36.1 ± 4.5 | 16.3 ± 0.4 | 7.6 ± 0.7 | 0 | not greatly affected | not significantly affected
